Measured values published in patent US6683181B2, “Pyrroloquinolones as antiviral agents” (Pharmacia and Upjohn Comapny, priority 2000, dated 2004).
pIC50: −log10 of the molar value.

Legend:
[1] = target: T1, CMV Polymerase (Human cytomegalovirus, UniProt P08546); assay: HCMV polymerase scintillation proximity assay (modified version); assay type: biochemical; settings: modified SPA assay; compounds diluted in 100% DMSO; 4.5 mM DTT
T1 construct: made in house; host or cells: recombinant baculovirus-infected SF-9 cells
T1 sequence (P08546 whole entry): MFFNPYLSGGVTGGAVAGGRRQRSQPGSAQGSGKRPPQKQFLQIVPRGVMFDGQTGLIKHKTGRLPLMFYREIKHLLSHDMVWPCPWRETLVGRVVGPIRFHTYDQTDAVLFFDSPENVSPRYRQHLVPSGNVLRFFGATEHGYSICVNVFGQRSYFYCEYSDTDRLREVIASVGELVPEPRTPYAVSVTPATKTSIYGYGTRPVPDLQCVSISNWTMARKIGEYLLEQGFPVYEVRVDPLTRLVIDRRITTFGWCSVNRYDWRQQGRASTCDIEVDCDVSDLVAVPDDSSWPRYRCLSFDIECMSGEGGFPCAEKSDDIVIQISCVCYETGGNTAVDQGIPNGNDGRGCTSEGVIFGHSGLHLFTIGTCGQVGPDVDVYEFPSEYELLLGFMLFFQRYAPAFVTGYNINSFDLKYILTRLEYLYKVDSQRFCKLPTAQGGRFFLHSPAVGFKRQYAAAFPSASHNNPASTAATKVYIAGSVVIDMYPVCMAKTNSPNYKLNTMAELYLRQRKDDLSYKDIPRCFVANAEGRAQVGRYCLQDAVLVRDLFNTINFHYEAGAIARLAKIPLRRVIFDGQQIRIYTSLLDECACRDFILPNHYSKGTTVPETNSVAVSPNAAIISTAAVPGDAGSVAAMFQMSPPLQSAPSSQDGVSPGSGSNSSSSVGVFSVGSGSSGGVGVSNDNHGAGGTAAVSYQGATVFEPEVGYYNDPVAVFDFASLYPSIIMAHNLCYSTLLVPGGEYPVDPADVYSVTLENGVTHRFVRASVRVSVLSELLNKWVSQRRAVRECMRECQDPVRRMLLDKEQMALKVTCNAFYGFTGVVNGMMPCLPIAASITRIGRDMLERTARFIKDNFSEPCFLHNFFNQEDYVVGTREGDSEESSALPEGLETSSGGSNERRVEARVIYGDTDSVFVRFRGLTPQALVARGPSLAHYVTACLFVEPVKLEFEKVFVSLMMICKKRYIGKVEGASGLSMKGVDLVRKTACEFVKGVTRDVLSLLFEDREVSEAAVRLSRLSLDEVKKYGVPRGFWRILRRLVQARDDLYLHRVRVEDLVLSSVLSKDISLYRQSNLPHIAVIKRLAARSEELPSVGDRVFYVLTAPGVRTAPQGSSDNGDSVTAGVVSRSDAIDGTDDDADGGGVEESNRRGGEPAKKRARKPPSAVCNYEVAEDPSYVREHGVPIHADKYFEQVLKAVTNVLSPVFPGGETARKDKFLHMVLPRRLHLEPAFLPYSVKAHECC
Description: (§1) The HCMV polymerase assay is performed using a scintillation proximity assay (SPA) as described in several references, such as N. D. Cook, et al., Pharmaceutical Manufacturing International, pages 49-53 (1992); K. Takeuchi, Laboratory Practice, September issue (1992); U.S. Pat. No. 4,568,649 (1986); which are incorporated by reference herein. Reactions are performed in 96-well plates. The assay is conducted in 100 μl volume with 5.4 mM HEPES (pH 7.5), 11.7 mM KCl, 4.5 mM MgCl2, 0.36 mg/ml BSA, and 90 nM ^3H-dTTP. Assays are run with and without CHAPS, (3-[(3-Cholamidopropyl)-dimethylammonio]-1-propane-sulfonate) at a final concentration of 2 mM. HCMV polymerase is diluted in enzyme dilution buffer containing 50% glycerol, 250 mM NaCl, 10 mM HEPES (pH 7.5), 100 μg/ml BSA, and 0.01% sodium azide. The HCMV polymerase, which is expressed in recombinant baculovirus-infected SF-9 cells and purified according to literature procedures, is added at 10% (or 10 μl) of the final reaction volume, i.e., 100 μl. Compounds are diluted in 50% DMSO and 10 μl are added to each well. Control wells contain an equivalent concentration of DMSO. Unless noted otherwise, reactions are initiated via the addition of 6 nM biotinylated poly(dA)-oligo(dT) template/primer to reaction mixtures containing the enzyme, substrate, and compounds of interest. Plates are incubated in a 25° C. or 37° C. H2O bath and terminated via the addition of 40 μl/reaction of 0.5 M EDTA (pH 8) per well. Reactions are terminated within the time-frame during which substrate incorporation is linear and varied depending upon the enzyme and conditions used, i.e., 30 min. for HCMV polymerase. Ten μl of streptavidin-SPA beads (20 mg/ml in PBS/10% glycerol) are added following termination of the reaction. Plates are incubated 10 min. at 37° C., then equilibrated to room temperature, and counted on a Packard Topcount. Linear regressions are performed and IC50's are calculated using computer software.
A modified version of the above HCMV polymerase assay is performed as described above, but with the following changes: Compounds are diluted in 100% DMSO until final dilution into assay buffer. In the previous assay, compounds are diluted in 50% DMSO. 4.5 mM dithiotherotol (DTT) is added to the polymerase buffer.

[2] = target: VZV Polymerase (Varicella-zoster virus, UniProt P09252); assay: VZV polymerase assay; assay type: biochemical
Chain of VZV Polymerase (P09252 whole entry): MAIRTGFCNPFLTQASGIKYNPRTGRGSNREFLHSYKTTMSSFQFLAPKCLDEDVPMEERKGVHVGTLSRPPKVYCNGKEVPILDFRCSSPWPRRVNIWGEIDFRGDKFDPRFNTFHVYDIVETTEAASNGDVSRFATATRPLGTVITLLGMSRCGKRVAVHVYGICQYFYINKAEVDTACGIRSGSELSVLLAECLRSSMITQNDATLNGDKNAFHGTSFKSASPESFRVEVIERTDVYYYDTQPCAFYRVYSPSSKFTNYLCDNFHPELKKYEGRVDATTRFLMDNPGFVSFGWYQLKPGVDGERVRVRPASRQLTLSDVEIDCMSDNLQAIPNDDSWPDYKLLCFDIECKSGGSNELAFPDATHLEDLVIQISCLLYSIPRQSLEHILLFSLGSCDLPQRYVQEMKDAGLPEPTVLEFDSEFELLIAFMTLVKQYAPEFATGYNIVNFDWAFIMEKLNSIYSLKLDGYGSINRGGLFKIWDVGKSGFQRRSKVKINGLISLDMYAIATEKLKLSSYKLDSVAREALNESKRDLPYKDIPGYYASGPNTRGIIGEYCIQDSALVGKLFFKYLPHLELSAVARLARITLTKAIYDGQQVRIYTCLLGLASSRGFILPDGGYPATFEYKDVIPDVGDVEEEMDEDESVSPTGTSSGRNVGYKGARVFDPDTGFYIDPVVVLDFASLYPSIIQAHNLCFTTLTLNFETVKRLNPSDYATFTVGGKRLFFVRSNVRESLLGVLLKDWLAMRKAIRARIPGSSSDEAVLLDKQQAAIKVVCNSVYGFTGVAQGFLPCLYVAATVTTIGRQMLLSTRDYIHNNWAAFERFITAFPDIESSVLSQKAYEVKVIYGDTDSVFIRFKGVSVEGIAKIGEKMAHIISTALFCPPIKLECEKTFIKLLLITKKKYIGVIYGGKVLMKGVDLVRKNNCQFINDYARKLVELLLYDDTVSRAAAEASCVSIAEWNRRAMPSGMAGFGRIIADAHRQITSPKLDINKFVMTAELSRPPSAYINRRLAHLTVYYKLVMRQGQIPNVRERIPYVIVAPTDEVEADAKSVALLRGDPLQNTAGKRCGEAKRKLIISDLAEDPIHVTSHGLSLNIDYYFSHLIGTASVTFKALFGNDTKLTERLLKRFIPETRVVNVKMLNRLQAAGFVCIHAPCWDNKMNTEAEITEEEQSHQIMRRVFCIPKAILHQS
Description: [Worded in the source for another target; used here, by the source, with some conditions changed.] as §1, with “software. […]” for “software.”

[3] = target: HSV Polymerase (Human herpesvirus 1, UniProt P04293); assay: HSV polymerase assay; assay type: biochemical
Chain of HSV Polymerase (P04293 whole entry): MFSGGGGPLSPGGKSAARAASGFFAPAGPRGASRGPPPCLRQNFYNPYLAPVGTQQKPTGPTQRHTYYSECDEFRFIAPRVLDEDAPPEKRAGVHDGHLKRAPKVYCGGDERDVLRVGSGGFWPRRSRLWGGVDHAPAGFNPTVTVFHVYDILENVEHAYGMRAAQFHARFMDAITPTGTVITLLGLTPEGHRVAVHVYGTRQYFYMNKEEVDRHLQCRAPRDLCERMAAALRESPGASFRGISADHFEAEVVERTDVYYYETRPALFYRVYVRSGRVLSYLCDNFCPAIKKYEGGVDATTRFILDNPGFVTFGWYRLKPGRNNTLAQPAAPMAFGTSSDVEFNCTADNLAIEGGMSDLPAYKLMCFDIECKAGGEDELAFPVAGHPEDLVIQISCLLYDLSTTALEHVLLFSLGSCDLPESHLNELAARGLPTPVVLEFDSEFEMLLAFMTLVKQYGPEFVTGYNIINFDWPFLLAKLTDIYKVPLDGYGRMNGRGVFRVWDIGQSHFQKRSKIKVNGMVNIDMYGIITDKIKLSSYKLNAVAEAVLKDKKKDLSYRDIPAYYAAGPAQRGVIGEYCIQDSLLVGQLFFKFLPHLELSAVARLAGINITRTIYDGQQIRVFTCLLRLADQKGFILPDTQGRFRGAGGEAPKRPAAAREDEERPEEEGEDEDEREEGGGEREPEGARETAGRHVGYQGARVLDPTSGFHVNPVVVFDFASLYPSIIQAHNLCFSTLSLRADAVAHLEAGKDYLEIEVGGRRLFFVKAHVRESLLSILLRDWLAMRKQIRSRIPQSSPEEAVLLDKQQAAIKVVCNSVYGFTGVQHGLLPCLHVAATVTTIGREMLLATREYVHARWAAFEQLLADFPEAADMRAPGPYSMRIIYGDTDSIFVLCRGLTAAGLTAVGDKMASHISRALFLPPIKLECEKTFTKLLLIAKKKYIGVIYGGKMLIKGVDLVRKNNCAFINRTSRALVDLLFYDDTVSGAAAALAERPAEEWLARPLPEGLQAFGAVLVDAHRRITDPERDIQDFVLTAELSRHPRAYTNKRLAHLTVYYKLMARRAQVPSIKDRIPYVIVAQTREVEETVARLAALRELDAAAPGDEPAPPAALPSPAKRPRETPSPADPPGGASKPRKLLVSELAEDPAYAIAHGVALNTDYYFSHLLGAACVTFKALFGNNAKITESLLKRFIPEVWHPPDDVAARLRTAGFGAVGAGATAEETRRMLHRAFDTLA
Description: [Worded in the source for another target; used here, by the source, with some conditions changed.] as §1, with “software. […]” for “software.”

Structure (SMILES)	pIC50 [1]	melting point	pIC50 [2]	pIC50 [3]
CN1CCN(CCc2cc3cc(CN4CCOCC4)cc4c(=O)c(C(=O)NCc5ccc(Cl)cc5)cn2c34)CC1 [Example 7, N-(4-Chlorobenzyl)-2-[2-(4-methylpiperazin-1-yl)ethyl]-8-(morpholin-4-ylmethyl)-6-oxo-6H-pyrrolo[3,2,1-ij]quinoline-5-carboxamide]	5.75	–	–	–
CN1CCN(CCCc2cc3cc(CN4CCOCC4)cc4c(=O)c(C(=O)NCc5ccc(Cl)cc5)cn2c34)CC1 [Example 9, N-(4-Chlorobenzyl)-2-[3-(4-methylpiperazin-1-yl)propyl]-8-(morpholin-4-ylmethyl)-6-oxo-6H-pyrrolo[3,2,1-ij]quinoline-5-carboxamide]	5.46	–	–	–
O=C(NCc1ccc(Cl)cc1)c1cn2c(CCCN3CCOCC3)cc3cc(CN4CCOCC4)cc(c1=O)c32 [Example 11, N-(4-Chlorobenzyl)-8-(morpholin-4-ylmethyl)-2-(3-morpholin-4-ylpropyl)-6-oxo-6H-pyrrolo[3,2,1-ij]quinoline-5-carboxamide]	5.45	–	–	–
CCC1CCCCN1CCc1cc2cc(CN3CCOCC3)cc3c(=O)c(C(=O)NCc4ccc(Cl)cc4)cn1c23 (stereo not shown) [Example 8, N-(4-Chlorobenzyl)-2-[2-(2-ethylpiperidin-1-yl)ethyl]-8-(morpholin-4-ylmethyl)-6-oxo-6H-pyrrolo[3,2,1-ij]quinoline-5-carboxamide]	5.72	–	–	–
O=C(NCc1ccc(Cl)cc1)c1cn2c(CN3CCS(=O)(=O)CC3)c(I)c3cc(CN4CCOCC4)cc(c1=O)c32 [Example 13, N-(4-Chlorobenzyl)-2-[(1,1-dioxido-4-thiomorpholinyl)methyl]-1-iodo-8-(4-morpholinylmethyl)-6-oxo-6H-pyrrolo[3,2,1-ij]quinoline-5-carboxamide]	6.08	244 to 246 °C	–	–
CCN(CC)CCc1cc2cc(CN3CCOCC3)cc3c(=O)c(C(=O)NCc4ccc(Cl)cc4)cn1c23 [Example 6, N-(4-Chlorobenzyl)-2-[2-(diethylamino)ethyl]-8-(4-morpholinylmethyl)-6-oxo-6H-pyrrolo[3,2,1-ij]quinoline-5-carboxamide]	5.61	–	–	–
O=C(NCc1ccc(Cl)cc1)c1cn2c(CO)cc3cccc(c1=O)c32 [Example 1, N-(4-Chlorobenzyl)-2-(hydroxymethyl)-6-oxo-6H-pyrrolo[3,2,1-ij]quinoline-5-carboxamide]	5.92	211 to 213 °C	–	–
O=C(NCc1ccc(Cl)cc1)c1cn2c(CCN3CCCCC3)cc3cc(CN4CCOCC4)cc(c1=O)c32 [Example 10, N-(4-Chlorobenzyl)-8-(morpholin-4-ylmethyl)-6-oxo-2-(2-piperidin-1-ylethyl)-6H-pyrrolo[3,2,1-ij]quinoline-5-carboxamide]	5.64	–	–	–
O=C(NCc1ccc(Cl)cc1)c1cn2c(CSc3ccccc3)cc3cc(CN4CCOCC4)cc(c1=O)c32 [Example 19, N-(4-Chlorobenzyl)-8-(4-morpholinylmethyl)-6-oxo-2-[(phenylsulfanyl)methyl]-6H-pyrrolo[3,2,1-ij]quinoline-5-carboxamide]	6.17	173 to 175 °C	–	–
O=C(NCc1ccc(Cl)cc1)c1cn2c(CCO)cc3cccc(c1=O)c32 [Example 22, N-(4-Chlorobenzyl)-2-(2-hydroxyethyl)-6-oxo-6H-pyrrolo[3,2,1-ij]quinoline-5-carboxamide]	5.92	190 to 192 °C	–	–

These reach a higher pIC50 [1]. Values come first.

pIC50 [1]	melting point	pIC50 [2]	pIC50 [3]	Structure (SMILES)
6.68	196 to 198 °C	6.80	6.70	O=C(NCc1ccc(Cl)cc1)c1cn2c(CO)cc3cc(CC4CCOCC4)cc(c1=O)c32 [Example 2, N-(4-Chlorobenzyl)-2-(hydroxymethyl)-6-oxo-8-(tetrahydro-2H-pyran-4-ylmethyl)-6H-pyrrolo[3,2,1-ij]quinoline-5-carboxamide]
6.89	204 to 206 °C	7.00	6.85	O=C(NCc1ccc(Cl)cc1)c1cn2c(CCO)cc3cc(CC4CCOCC4)cc(c1=O)c32 [Example 23, N-(4-Chlorobenzyl)-2-(2-hydroxyethyl)-6-oxo-8-(tetrahydro-2H-pyran-4-ylmethyl)-6H-pyrrolo[3,2,1-ij]quinoline-5-carboxamide]
6.28	210 to 212 °C	6.60	6.29	O=C(NCc1ccc(Cl)cc1)c1cn2c(CO)cc3cc(CN4CCOCC4)cc(c1=O)c32 [Example 3, N-(4-Chlorobenzyl)-2-(hydroxymethyl)-8-(4-morpholinylmethyl)-6-oxo-6H-pyrrolo[3,2,1-ij]quinoline-5-carboxamide]
6.27	157 to 159 °C	–	–	COCc1cc2cc(CN3CCOCC3)cc3c(=O)c(C(=O)NCc4ccc(Cl)cc4)cn1c23 [Example 17, N-(4-Chlorobenzyl)-2-(methoxymethyl)-8-(4-morpholinylmethyl)-6-oxo-6H-pyrrolo[3,2,1-ij]quinoline-5-carboxamide]
6.21	–	–	–	CN(C)Cc1cc2cc(CN3CCOCC3)cc3c(=O)c(C(=O)NCc4ccc(Cl)cc4)cn1c23 [Example 21, N-(4-Chlorobenzyl)-2-[(dimethylamino)methyl]-8-(4-morpholinylmethyl)-6-oxo-6H-pyrrolo[3,2,1-ij]quinoline-5-carboxamide]
6.49	171 to 174 °C	–	–	O=C(NCc1ccc(Cl)cc1)c1cn2c(CCCO)cc3cc(CN4CCOCC4)cc(c1=O)c32 [Example 14, N-(4-Chlorobenzyl)-2-(3-hydroxypropyl)-8-(4-morpholinylmethyl)-6-oxo-6H-pyrrolo[3,2,1-ij]quinoline-5-carboxamide]
6.39	250 to 252 °C	–	–	NC(=O)NCc1cc2cc(CN3CCOCC3)cc3c(=O)c(C(=O)NCc4ccc(Cl)cc4)cn1c23 [Example 15, 2-{[(Aminocarbonyl)amino]methyl}-N-(4-chlorobenzyl)-8-(4-morpholinylmethyl)-6-oxo-6H-pyrrolo[3,2,1-ij]quinoline-5-carboxamide]
6.31	–	–	–	CNCc1cc2cc(CN3CCOCC3)cc3c(=O)c(C(=O)NCc4ccc(Cl)cc4)cn1c23 [Example 20, N-(4-Chlorobenzyl)-2-[(methylamino)methyl]-8-(4-morpholinylmethyl)-6-oxo-6H-pyrrolo[3,2,1-ij]quinoline-5-carboxamide]
6.59	155 to 159 °C	–	–	C[C@@H](O)c1cc2cc(CN3CCOCC3)cc3c(=O)c(C(=O)NCc4ccc(Cl)cc4)cn1c23 [Example 16, N-(4-Chlorobenzyl)-2-[(IR)-1-hydroxyethyl]-8-(4-morpholinylmethyl)-6-oxo-6H-pyrrolo[3,2,1-ij]quinoline-5-carboxamide]
6.24	177 to 178 °C	–	–	CCSCc1cc2cc(CN3CCOCC3)cc3c(=O)c(C(=O)NCc4ccc(Cl)cc4)cn1c23 [Example 18, N-(4-Chlorobenzyl)-2-[(ethylsulfanyl)methyl]-8-(4-morpholinylmethyl)-6-oxo-6H-pyrrolo[3,2,1-ij]quinoline-5-carboxamide]
6.44	236 to 239 °C	–	–	O=C(NCc1ccc(Cl)cc1)c1cn2c(CN3CCS(=O)(=O)CC3)cc3cc(CN4CCOCC4)cc(c1=O)c32 [Example 12, N-(4-Chlorobenzyl)-2-[(1,1-dioxido-4-thiomorpholinyl)methyl]-8-(4-morpholinylmethyl)-6-oxo-6H-pyrrolo[3,2,1-ij]quinoline-5-carboxamide]
